Data from patent US8592419B2, “Ceramides and apoptosis-signaling ligand” (MUSC Foundation for Research Development, priority 2004, dated 2013).

Experiments:
p73 = assay: Immunoblot of p73; format: cell-based, human
Experimental: (§1) Immunoblot analysis. Cells were seeded in 60mm plates as described above and treated accordingly. Cells were lifted by gently scraping the plates, washed once with ice cold PBS and then lysed in lysis buffer (PBS, 1% Triton X-100, 10% glycerol) containing protease inhibitors pepstatin A (0.5 μg/ml), leupeptin (0.5 μg/ml), aprotinin (5 μg/ml), and PMSF (100 μg/ml) for 10 minutes on ice. Insoluble material was removed by centrifugation at 14,000 rpm for 15 minutes at 4° C. The supernatants were then supplemented with SDS at a final concentration of 2% and stored at −80° C. Protein concentrations were determined using the DC Protein Assay (BioRad Laboratories; Hercules, CA, USA) according to the manufacturer's instructions. 50 μg of protein per sample (unless otherwise indicated) were separated on NuPAGE 4-12% Bis-Tris gels (Invitrogen; Carlsbad, CA, USA) and transferred to nitrocellulose membranes (BioRad). Following transfer, membranes were blocked for 1 hour at room temperature in Tris-buffered saline (TBS) containing 0.1% Tween-20 and 5% nonfat dry milk and incubated overnight at 4° C. with primary antibody at a dilution of 1:2,000(actin), 1:1,000(cytochrome c, COX IV, Bax, Bak, p53, p38, P-p38), 1:500(P-JNK, JNK), 1:250 (AC, p73), or 1:400(LAMP-1, cathepsin B). Overnight incubations were performed in 5% milk in TBS-Tween. Following overnight incubation, membranes were washed three times for 10 minutes each in TBS-Tween and incubated for 1 hour at room temperature with secondary antibody in 5% milk TBS-Tween at a dilution 1:5,000 (goat anti-mouse IgG) or 1:50,000 (goat anti-rabbit). Membranes were then washed three times more and incubated for 5 minutes at room temperature with Super Signal HRP substrate (Pierce Biotechnology Inc.; Rockford, IL, USA).

acid ceramidase (AC) = target: T1, acid ceramidase (AC) (Homo sapiens, UniProt Q13510); assay: Immunoblot of acid ceramidase protein; format: cell-based; settings: DU145 cells
T1 construct: endogenous in cells
T1 sequence (Q13510 22-395): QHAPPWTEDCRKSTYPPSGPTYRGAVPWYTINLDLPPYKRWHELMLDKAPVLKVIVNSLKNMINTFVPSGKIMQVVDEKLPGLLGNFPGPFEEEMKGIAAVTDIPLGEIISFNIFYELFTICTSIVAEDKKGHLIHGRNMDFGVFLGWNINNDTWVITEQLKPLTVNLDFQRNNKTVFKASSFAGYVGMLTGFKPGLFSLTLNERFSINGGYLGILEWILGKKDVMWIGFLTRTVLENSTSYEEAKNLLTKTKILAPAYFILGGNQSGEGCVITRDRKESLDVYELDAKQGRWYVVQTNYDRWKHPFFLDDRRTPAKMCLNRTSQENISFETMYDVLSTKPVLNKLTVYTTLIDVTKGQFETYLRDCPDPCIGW
Experimental: as §1

DU145 cells [1] = assay: MTS cell viability assay in DU145 cells; format: cell-based, human; settings: in vitro
Experimental: MTS cytotoxicity assays for LCL204 treatments. Cell viability was determined using the CellTiter 96 AQueous One Solution Cell Proliferation Assay (Promega; Madison, Wis., USA). 1×10^4 cells per well were seeded in 96-well plates overnight. The next day media was removed and replaced with either 100 μl media with vehicle control or media containing LCL204 at desired concentrations. Assays were carried out according to manufacturer's instruction as previously described (60). For experiments using enzyme inhibitors and LCL204, media was removed and replaced with 50 μl media containing vehicle only or indicated inhibitor. Cells were pretreated 1 hour at 37° C. before adding 50 μl media containing vehicle, inhibitor only, LCL204 only (2× concentration), or a combination. The remainder of the assay was carried out as described above.

LAMP-1 = assay: Immunoblot of LAMP-1; format: cell-based, human; settings: DU145 cells, 12 hours LCL204
Experimental: as §1, with “Following overnight incubation, membranes were washed three times for 10 minutes each in TBS-Tween and incubated for 1 hour at room temperature with secondary antibody in 5% milk TBS-Tween at a dilution 1:5,000 (goat anti-mouse IgG) or 1:50,000 (goat anti-rabbit). Membranes were then washed three times more and incubated for 5 minutes at room temperature with Super Signal HRP substrate (Pierce Biotechnology Inc.; Rockford, IL, USA).” left out

JNK = assay: Immunoblot of phosphorylated JNK; format: cell-based, human; settings: DU145 and PC-3 cells
Experimental: as §1, with “Following overnight incubation, membranes were washed three times for 10 minutes each in TBS-Tween and incubated for 1 hour at room temperature with secondary antibody in 5% milk TBS-Tween at a dilution 1:5,000 (goat anti-mouse IgG) or 1:50,000 (goat anti-rabbit). Membranes were then washed three times more and incubated for 5 minutes at room temperature with Super Signal HRP substrate (Pierce Biotechnology Inc.; Rockford, IL, USA).” left out

DU145 cells [2] = assay: Cell death by MTS assay, ceramide analog combined with AdGFPFasL virus; format: cell-based, human
Experimental: LCL102, a ceramidase inhibitor, which acts to increasing intracellular ceramide levels by […], were tested in this system. This molecule was highly efficient at activating cell death in DU145 cells at nontoxic doses if combined with AdGFPFasL virus at MOIs achievable in vivo. DU145 cells growing in 96 well plates at 1×10^4 cells/well are treated with either media alone or LCL102 at 2 uM for 48 hours followed by AdGFPFasL for 24 hours at the MOI (5-80). Cell death is assayed by the MTS assay. At 2 uM LCL102 and 5MOI of virus, cell death is amplified 4-fold compared to LCL102 alone (FIG. 14).

DU145 xenografts = assay: DU145 prostate cancer xenografts in nude mice
Excerpt: One of the problems with cancer gene therapy as it is currently practiced is the issue of delivery of gene therapy vectors to every tumor cell in order to effect death of the tumor. […] The inventors devised a model of molecular cell killing in a solid tumor in which only perhaps up to 30% of the cells are infected by the virus. Since the ceramide analogs of the invention are acid CDase inhibitors which sensitize the cells to this type of cell death, an in vivo experiment in which prostate cancer xenografts, in this case DU145 cells, were grown in nude mice and treated sequentially with the acid Cdase inhibitor LCL204 followed by the AdGFPFasL virus. […] The LCL204 was administered at 0, 72 and 144 hours and the virus (1×10^9 pfu) at 10 and 82 hours.

PUMA = assay: Immunoblot of PUMA; format: cell-based, human; settings: for PUMA up-regulation: 10 μM
Experimental: as §1

[3] = system: mitochondria membrane potential in DU145 cells; assay: Mitochondria membrane potential measurement (JC-1); format: cell-based, human; settings: 5 μM
Experimental: Mitochondria membrane potential measurement. Cells were seeded at a density of 7.49×10^5 cells per plate in 60 mm plates overnight. The next day, media was replaced with media containing vehicle control or LCL204 (5 μM). Cells were lifted using Cell Stripper (Mediatech), washed twice in PBS, and resuspended in 3 ml 1×JC-1 reagent solution (dissolved in medium). Samples were incubated at 37° C. for 15 minutes, washed twice with PBS, and resuspended in 0.5 ml growth medium before analysis by flow cytometry using a Beckton-Dickinson FACSCalibur (590 nm/527 nm emission). A minimum of 10,000 events were scored for each sample.

**Q.** How did the p73β induction (p73; PC-3 cells, 10 μM) turn out when `CCCCCCCCCCCCCCN[C@H](CO)[C@H](O)c1ccc([N+](=O)[O-])cc1.Cl` [LCL204, (1R,2R) D-threo-2-N-Tetradecylamino-1-(4′-nitrophenyl)-1,3-propandiol hydrochloride] was run?
**A.** p73β induction was detected after only two hours

**Q.** And the p73β induction (p73; PPC-1/pcDNA3 cells)?
**A.** time-dependent p73β induction

**Q.** And the “earliest down-regulation of AC” value (acid ceramidase (AC); 5 μM)?
**A.** 2 h

**Q.** What about the AC expression levels (acid ceramidase (AC)) of the same compound?
**A.** dose and time-dependent decrease in AC expression levels

**Q.** What about the “potency as inducer of cell death compared with B13” value (DU145 cells [1]) of the same compound?
**A.** much more potent inducer of cell death than B13

**Q.** What about the LAMP-1 expression (LAMP-1) of the same compound?
**A.** increases

**Q.** What about the “phosphorylation and activation of JNK” value (JNK) of the same compound?
**A.** beginning as early as three hours

**Q.** What about the “increase in cancer cell death” value (DU145 cells [2]; 2 μM in combination with AdGFPFasL virus at low MOIs) of the same compound?
**A.** ≤ 10 fold

**Q.** And the viral infectivity (DU145 cells [2]; DU145 cells)?
**A.** not modifying viral infectivity

**Q.** And the “increase of the ability of AdGFPFasL to kill tumor cells” value (DU145 cells [2]; in vitro, subtoxic doses)?
**A.** as much as ten-fold

**Q.** And the “tumor burden, combination of LCL204 and AdGFPFasL virus” value (DU145 xenografts; LCL204 at 0, 72 and 144 hours followed by virus at 10 and 82 hours)?
**A.** effectively reduce the tumor burden

**Q.** And the “tumor growth, single agent” value (DU145 xenografts; LCL204 systemically at 0, 72 and 144 hours, virus 1×10^9 pfu at 10 and 82 hours)?
**A.** some modest effects

**Q.** And the “observable effect on the animal” value (DU145 xenografts; up to 75 mg/kg)?
**A.** no observable effect on the animal

**Q.** What about the PUMA up-regulation (PUMA; DU145 cells) of the same compound?
**A.** up-regulated in DU145 cells after eight hours

**Q.** What about the PUMA up-regulation (PUMA; PC-3 cells) of the same compound?
**A.** earlier (four hours) in PC-3 cells

**Q.** What about the “time of PUMA induction” value (PUMA; PPC-1/pcDNA3 control cells, 7.5 μM) of the same compound?
**A.** 90 min

**Q.** What about the “earliest observed decrease in ΔΨm” value [3] of the same compound?
**A.** 2 h
